Test results published in patent US9939427B2, “Method for evaluating the scent performance of perfumes or perfume mixtures” (Symrise AG, priority 2013, dated 2018).

How the values were obtained:
Format in all cases: cell-based
[1] = molecular target: T1, OR4E2 (Homo sapiens, UniProt Q8NGC2); experiment: Ca-imaging of OR4E2-transfected HEK293 cells; set-up: key: ▪: 18 olfactory receptors responded to 32 odorants in related with specific anosmia; details: individual odorant 200 μM, significant response p<0.05
T1 construct: specific primers, which amplify the complete open reading frame; expressed in transfected cells; host or cells: HEK293
T1 sequence (Q8NGC2 1-313): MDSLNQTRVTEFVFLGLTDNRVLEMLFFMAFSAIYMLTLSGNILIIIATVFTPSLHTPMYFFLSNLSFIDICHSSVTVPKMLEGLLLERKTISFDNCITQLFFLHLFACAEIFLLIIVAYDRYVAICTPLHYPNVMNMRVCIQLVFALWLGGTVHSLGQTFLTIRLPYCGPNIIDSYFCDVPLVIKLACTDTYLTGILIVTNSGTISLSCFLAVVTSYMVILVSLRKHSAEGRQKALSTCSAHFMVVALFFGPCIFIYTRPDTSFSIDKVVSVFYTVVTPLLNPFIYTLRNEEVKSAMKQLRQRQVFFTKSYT
Procedure: (§1) HEK293 cells were cultivated in Petri dishes (Ø35 mm) as previously described (Benbernou et al. 2007). We grow up HEK293 cells in culture medium containing standard DMEM with 10% heat-inactivated fetal bovine serum, 2 mM L-glutamine, 100 units/ml penicillin, and 100 units/ml streptomycin in a humidified atmosphere (37° C., 5% CO2). After 2-3 days, the transfection process was carried out, whereby the cell culture was 70-80% confluent. The calciumphosphate method was applied to transfect DNA plasmid transiently in HEK293 cells in case of Ca-imaging method.
(§2) Calcium cations and phosphate anions created crystal precipitations coupled with DNA which could invade into the cells through endocytosis. Cells were transiently transfected with plasmid DNA which consists of pCI expression vector and PCR-amplified full-length cDNA of olfactory receptors candidates, and also Gα15, RTP1, Myr-Ric8A, HSC70, and m-Cherry as cofactors. The precipitation could be created after 15-20 min, with dropping the transfection solution on HEK293 cells. Before measuring by Ca-imaging cells were incubated 48-60 hours at 370 C, 5% CO2. […]
(§3) Calcium imaging of the transfected HEK293 cells was done by using chambers determinate an inverted microscope (Olympus; IX70) using a 10× objective (CPIanFL N Olympus). Fluorescence emission was determined every 4 s by using a CCD camera (Charge Coupled Device, C9100 Hamamatsu). […] Odorants were manually monitored to drop each 4-5 s to transfected cells. […]
(§4) In experiments, Fura-2 Acetoxymethylester (Fura-2/AM) was applied. […] According to this feature, the analysis of 340/380 nm excitation ratio for Fura-2 allows to quantify intracellular calcium levels. […]
(§5) Ringer's solution was used for washing cells between measuring by two different odorants. Positive response was determined by the timing of the response, the strength of the response (more than twofold higher than the noise amplitude of the baseline), and the shape of the response curve (sharp rise in curve with gradual recovery). […]

[2] = molecular target: T2, OR4K2 (Homo sapiens, UniProt Q8NGD2); experiment: Ca-imaging of OR4K2-transfected HEK293 cells; set-up: key to OR4K2 responded to odorant: ▪: 18 olfactory receptors responded to 32 odorants in related with specific anosmia; details: HEK293 cells, individual odorant 200 μM, significant response p<0.05
T2 construct: specific primers, which amplify the complete open reading frame; expressed in transfected cells; host or cells: HEK293
T2 sequence (Q8NGD2 1-314): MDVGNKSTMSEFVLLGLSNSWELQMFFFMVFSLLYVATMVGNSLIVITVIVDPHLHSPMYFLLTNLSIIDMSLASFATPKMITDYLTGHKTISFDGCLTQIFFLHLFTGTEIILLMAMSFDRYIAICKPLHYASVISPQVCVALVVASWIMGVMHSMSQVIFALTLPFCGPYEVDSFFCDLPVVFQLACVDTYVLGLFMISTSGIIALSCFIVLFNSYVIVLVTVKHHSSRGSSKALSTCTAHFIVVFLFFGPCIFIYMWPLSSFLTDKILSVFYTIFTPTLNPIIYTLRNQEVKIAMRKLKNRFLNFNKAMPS
Procedure: as §1
(§6) Calcium cations and phosphate anions created crystal precipitations coupled with DNA which could invade into the cells through endocytosis. Cells were transiently transfected with plasmid DNA which consists of pCI expression vector and PCR-amplified full-length cDNA of olfactory receptors candidates, and also Gα15, RTP1, Myr-Ric8A, HSC70, and m-Cherry as cofactors. The precipitation could be created after 15-20 min, with dropping the transfection solution on HEK293 cells. Before measuring by Ca-imaging cells were incubated 48-60 hours at 370 C, 5% CO2. Cationic liposome-mediated transfection method was applied to transfect DNA plasmid transiently in HANA3A cells in case of CRE-Luciferase and CRE-SEAP assays.
(§7) Calcium imaging of the transfected HEK293 cells was done by using chambers determinate an inverted microscope (Olympus; IX70) using a 10× objective (CPIanFL N Olympus). Fluorescence emission was determined every 4 s by using a CCD camera (Charge Coupled Device, C9100 Hamamatsu). The capillary tube which was responsible to supply odorants was generated closely above the cells. The columns filled with odorants, DMSO and ATP. Odorants were manually monitored to drop each 4-5 s to transfected cells. Solutions with drop wise form spread on HEK293 cells in 35 mm dishes.
In experiments, Fura-2 Acetoxymethylester (Fura-2/AM) was applied. The non-polar Fura2/AM is fluorescent but not yet calcium-sensitive. Once diffuses into cell plasma, Fura-2/AM is hydrolyzed to Fura-2 which is calcium-sensitive and functions as Ca2+ chelator. Regardless of the presence of calcium, Fura-2 emits at the wavelength of 510 nm. Once Fura-2 binds to free intracellular Ca2+ in cell plasma, its ratio of excitation at wavelengths of 340 nm and 380 nm is changed and correlated to the amount of intracellular Ca2+. According to this feature, the analysis of 340/380 nm excitation ratio for Fura-2 allows to quantify intracellular calcium levels.
In preparation for Ca-imaging measurements, transfected HEK293 cells were added 3 it Fura2/AM (3 μM) and incubated 30-45 min at 370 C, 5% CO2. After this step, experiments were carried out in a dark condition (Fura-2 is light-sensitive). After the incubation, medium of cell culture was replaced with 2 ml Ringer's solution.
Odorants were freshly prepared with DMSO as 1 M stocks solutions. Six mixtures (200 μM each chemical) were applied to cells sequentially (20 s each mixture/30 s Ringer). Those ORs tested with single odorants that had generated a response to odorant mixture group previously. Odorants were prepared in 100-200 μM concentration.
as §5

[3] = molecular target: T3, OR4P4 (Homo sapiens, UniProt Q8NGL7); experiment: Ca-imaging of OR4P4-transfected HEK293 cells; set-up: key to OR4P4 responded to odorant: ▪: 18 olfactory receptors responded to 32 odorants in related with specific anosmia; details: for OR4P4 responded to odorant: HEK293 cells, individual odorant 200 μM, significant response p<0.05
T3 construct: specific primers, which amplify the complete open reading frame; expressed in transfected cells; host or cells: HEK293
T3 sequence (Q8NGL7 1-312): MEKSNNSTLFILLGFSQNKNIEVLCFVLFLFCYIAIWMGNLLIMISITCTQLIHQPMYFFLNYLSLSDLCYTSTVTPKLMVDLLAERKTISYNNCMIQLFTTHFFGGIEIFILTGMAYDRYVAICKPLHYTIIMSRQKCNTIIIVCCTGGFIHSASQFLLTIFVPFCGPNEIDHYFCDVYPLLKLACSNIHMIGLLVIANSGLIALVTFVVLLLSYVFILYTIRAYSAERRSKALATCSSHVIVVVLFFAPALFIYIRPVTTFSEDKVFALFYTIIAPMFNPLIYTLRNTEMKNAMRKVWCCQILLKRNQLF
Procedure: as §1, §2, §3, §4, §5

[4] = molecular target: T4, OR12D2 (Homo sapiens, UniProt P58182); experiment: Ca-imaging of OR12D2-transfected HEK293 cells; set-up: key: ▪: 18 olfactory receptors responded to 32 odorants in related with specific anosmia; details: individual odorant 200 μM, significant response p<0.05
T4 construct: specific primers, which amplify the complete open reading frame; expressed in transfected cells; host or cells: HEK293
T4 sequence (P58182 1-307): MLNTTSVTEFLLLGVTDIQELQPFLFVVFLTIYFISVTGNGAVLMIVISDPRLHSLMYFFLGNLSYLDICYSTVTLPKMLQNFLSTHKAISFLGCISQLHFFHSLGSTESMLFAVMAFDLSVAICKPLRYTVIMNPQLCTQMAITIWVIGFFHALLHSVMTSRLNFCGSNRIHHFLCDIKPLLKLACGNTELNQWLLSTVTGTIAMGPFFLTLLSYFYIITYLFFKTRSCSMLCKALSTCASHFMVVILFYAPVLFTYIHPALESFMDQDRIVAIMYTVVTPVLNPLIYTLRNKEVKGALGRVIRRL
Procedure: In preparation for Ca-imaging measurements, transfected HEK293 cells were added 3 it Fura2/AM (3 μM) and incubated 30-45 min at 370 C, 5% CO2. After this step, experiments were carried out in a dark condition (Fura-2 is light-sensitive). […]

[5] = molecular target: T5, OR4K5 (Homo sapiens, UniProt Q8NGD3); experiment: Ca-imaging of OR4K5-transfected HEK293 cells; set-up: key to OR4K5 responded to odorant: ▪: 18 olfactory receptors responded to 32 odorants in related with specific anosmia; details: HEK293 cells, individual odorant 200 μM, significant response p<0.05
T5 construct: specific primers, which amplify the complete open reading frame; expressed in transfected cells; host or cells: HEK293
T5 sequence (Q8NGD3 1-323): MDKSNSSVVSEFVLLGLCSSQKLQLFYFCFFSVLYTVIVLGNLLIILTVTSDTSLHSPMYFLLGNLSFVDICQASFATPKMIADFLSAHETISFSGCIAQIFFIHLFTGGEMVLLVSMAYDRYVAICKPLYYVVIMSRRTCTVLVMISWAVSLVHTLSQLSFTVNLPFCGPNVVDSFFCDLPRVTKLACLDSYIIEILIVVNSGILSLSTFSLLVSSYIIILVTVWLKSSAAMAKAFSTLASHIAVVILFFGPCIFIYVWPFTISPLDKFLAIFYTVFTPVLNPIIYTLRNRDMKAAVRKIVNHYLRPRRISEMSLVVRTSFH
Procedure: as §1, §2, §3, §4, §5

[6] = molecular target: T6, OR52B4 (Homo sapiens, UniProt Q8NGK2); experiment: Ca-imaging of OR52B4-transfected HEK293 cells; set-up: key: ▪: 18 olfactory receptors responded to 32 odorants in related with specific anosmia; details: individual odorant 200 μM, significant response p<0.05
T6 construct: specific primers, which amplify the complete open reading frame; expressed in transfected cells; host or cells: HEK293
T6 sequence (Q8NGK2 1-314): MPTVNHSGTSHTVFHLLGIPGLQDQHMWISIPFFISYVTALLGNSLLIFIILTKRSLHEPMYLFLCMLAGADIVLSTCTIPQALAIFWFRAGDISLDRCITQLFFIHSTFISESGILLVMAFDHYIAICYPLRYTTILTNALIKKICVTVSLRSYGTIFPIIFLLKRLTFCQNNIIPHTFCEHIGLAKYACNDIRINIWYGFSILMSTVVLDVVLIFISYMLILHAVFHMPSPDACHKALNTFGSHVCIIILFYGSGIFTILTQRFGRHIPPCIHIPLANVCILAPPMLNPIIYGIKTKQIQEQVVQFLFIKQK
Procedure: as §1, §6, §7
In experiments, Fura-2 Acetoxymethylester (Fura-2/AM) was applied. The non-polar Fura2/AM is fluorescent but not yet calcium-sensitive. Once diffuses into cell plasma, Fura-2/AM is hydrolyzed to Fura-2 which is calcium-sensitive and functions as Ca2+ chelator. Regardless of the presence of calcium, Fura-2 emits at the wavelength of 510 nm. […] According to this feature, the analysis of 340/380 nm excitation ratio for Fura-2 allows to quantify intracellular calcium levels. […]
as §5

Compound: CC(C)=CCC/C(C)=C/CO [Graniol, Geraniol]
- OR4E2 responded to odorant [1]: ▪

Compound: O=Cc1ccccc1 [Banzaldehyde, Benzaldehyde]
- OR4K2 responded to odorant [2]: ▪

Compound: Globalide
- OR4P4 responded to odorant [3]: ▪
- Response of OR4P4 to odorant, in words ([3]; single odorants 200 μM): responded

Compound: CC(C)CC(=O)O [Isovaleric acid]
- OR12D2 responded to odorant [4]: ▪

Compound: CCCCCC(=O)O [N-Hexanoic acid, NHexanoic acid]
- OR4P4 responded to odorant [3]: ▪

Compound: CO[C@]1(C)CC[C@@]23C[C@@H]1C(C)(C)[C@@H]2CC[C@H]3C [Cedramber]
- OR4K5 responded to odorant [5]: ▪

Compound: COc1c(Cl)cc(Cl)cc1Cl [2-4-6 trichoroanisole, 2-4-6-Trichloroanisole]
- OR52B4 responded to odorant [6]: ▪
- OR4E2 responded to odorant [1]: ▪

Compound: CC(=O)O [Acetic acid]
- OR12D2 responded to odorant [4]: ▪

Compound: CC/C(=C\CC1CC=C(C)C1(C)C)CO (centres unmarked) [Sandranol]
- OR52B4 responded to odorant [6]: ▪

Compound: CC1CCCC2(C)CCCCC12O (centres unmarked) [Geosmin]
- OR52B4 responded to odorant [6]: ▪

Compound: CCC(=O)O [Propionic acid]
- OR12D2 responded to odorant [4]: ▪

Compound: CC(C)C=O [Isobutyr aldehyde, Isobutyraldehyde]
- OR4K2 responded to odorant [2]: ▪

Compound: O=CCCc1ccccc1 [3-phenyl propyl aldehyde, 3-Phenylpropionaldehyde]
- OR4E2 responded to odorant [1]: ▪
- OR4K2 responded to odorant [2]: ▪

Compound: C=CC(=O)CCCCC [1-Octan-3-One, 1-Octen-3-one]
- OR52B4 responded to odorant [6]: ▪
